Source: patent publication US6960607B2, “Naphthyl benzoxazoles and benzisoxazoles as estrogenic agents” (Wyeth, priority 2001, dated 2005)

Key:
human ERα = molecular target: T1, human ERα (Homo sapiens, UniProt P03372); assay: Radioligand binding competition with [3H]-17β-estradiol, ERα; settings: ligand binding domain expressed in E. coli lysate, read-out: ER-α IC50
T1 construct: amino acids M250V595 of human ERα; His (N); made in house; host or cells: E. coli BL21(DE3); clarified lysate used
T1 sequence (P03372 250-595): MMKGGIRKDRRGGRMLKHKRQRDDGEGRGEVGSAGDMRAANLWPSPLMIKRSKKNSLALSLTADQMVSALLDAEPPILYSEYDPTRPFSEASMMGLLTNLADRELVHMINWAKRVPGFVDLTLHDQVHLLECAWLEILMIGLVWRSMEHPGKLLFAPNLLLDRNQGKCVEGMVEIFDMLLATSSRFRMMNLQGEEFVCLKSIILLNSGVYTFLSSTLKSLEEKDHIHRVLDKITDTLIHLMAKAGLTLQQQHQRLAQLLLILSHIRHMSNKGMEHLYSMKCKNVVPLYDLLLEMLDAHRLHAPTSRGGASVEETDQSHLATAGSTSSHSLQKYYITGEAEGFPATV

human ERβ = molecular target: T2, human ERβ (Homo sapiens, UniProt Q92731); assay: Radioligand binding competition with [3H]-17β-estradiol, ERβ; settings: ligand binding domain expressed in E. coli lysate, read-out: ER-β IC50
T2 construct: M214-Q530 of human ERβ; Flag (C); made in house; host or cells: E. coli BL21(DE3); clarified lysate used
T2 sequence (Q92731 214-530): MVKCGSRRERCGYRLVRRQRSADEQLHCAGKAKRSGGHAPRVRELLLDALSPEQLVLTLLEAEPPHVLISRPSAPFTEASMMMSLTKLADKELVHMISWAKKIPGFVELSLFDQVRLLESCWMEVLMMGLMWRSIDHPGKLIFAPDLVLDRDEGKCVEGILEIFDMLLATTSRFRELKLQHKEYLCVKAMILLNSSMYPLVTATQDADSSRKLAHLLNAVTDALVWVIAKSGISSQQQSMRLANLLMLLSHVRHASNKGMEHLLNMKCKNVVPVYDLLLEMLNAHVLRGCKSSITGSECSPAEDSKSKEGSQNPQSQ

Row | melting point [°C] | IC50 (human ERα) [µM] | IC50 (human ERβ) [µM] | Structure (SMILES)
1 | 290 to 292 | > 5 | 1.51 | Cn1nc(-c2ccc3cc(O)ccc3c2)c2ccc(O)cc21 [Example 17, 3-(6-Hydroxy-2-naphthyl)-1-methyl-1H-indazol-6-ol]
2 | 182 to 184 | 0.581 | 0.23 | Oc1ccc2oc(-c3ccc(O)c4ccccc34)nc2c1 [Example 6, 2-(4-Hydroxy-1-naphthyl)-1,3-benzoxazol-5-ol]
3 | 146 to 148 | 3.17 | > 5 | CCn1nc(-c2ccc3cc(O)ccc3c2)c2ccc(O)cc21 [Example 18, 1-Ethyl-3-(6-hydroxy-2-naphthyl)-1H-indazol-6-ol]
